# Reference: ChEMBL document CHEMBL3885881, “DrugMatrix”
# Species: Rattus norvegicus
# Experiment: DrugMatrix - Regimen: Daily Repeat
# Type: toxicity, organism-based, Sprague-Dawley
# Set-up: regimen Daily Repeat, gender Male, age 6-8 weeks
# Details: in vivo, po, route oral GAVAGE, vehicle .5 % CMC; for BASOPHIL / EOSINOPHIL / ERYTHROCYTE COUNT / HEMATOCRIT / HEMOGLOBIN / LEUKOCYTE COUNT / LYMPHOCYTE / MEAN CORPUSCULAR HEMOGLOBIN / MEAN CORPUSCULAR HEMOGLOBIN CONCENTRATION / MEAN CORPUSCULAR VOLUME / MONOCYTE / NEUTROPHIL / PLATELET COUNT: tissue Blood; for ALANINE AMINOTRANSFERASE / ALBUMIN / ALKALINE PHOSPHATASE / ASPARTATE AMINOTRANSFERASE / BLOOD UREA NITROGEN / CARBON DIOXIDE / CHLORIDE / CHOLESTEROL / CREATINE PHOSPHOKINASE / CREATININE / GLUCOSE / LACTATE DEHYDROGENASE / LIPASE / PHOSPHORUS / POTASSIUM / SODIUM / TOTAL BILIRUBIN / TOTAL PROTEIN / URIC ACID: tissue Plasma
# [1] = 0 mg/kg, 72 h, dose level Control, time 3 day
# [2] = 0 mg/kg, 120 h, dose level Control, time 5 day
# [3] = 0 mg/kg, […], dose level Control, time 14 day
# [4] = 200 mg/kg, 72 h, dose level High, time 3 day
# [5] = 200 mg/kg, 120 h, dose level High, time 5 day
smiles,measurement,setting,value
Nc1cccc(Cl)c1 [3-CHLOROANILINE],BASOPHIL,[1],0.62%
same,EOSINOPHIL,[1],0.52%
same,ERYTHROCYTE COUNT,[1],6.33 x10E6/uL
same,HEMATOCRIT,[1],41.88%
same,HEMOGLOBIN,[1],13.52 G/DL
same,LEUKOCYTE COUNT,[1],11.39 x10E3/uL
same,LYMPHOCYTE,[1],86.18%
same,MEAN CORPUSCULAR HEMOGLOBIN,[1],21.35 pg
same,MEAN CORPUSCULAR HEMOGLOBIN CONCENTRATION,[1],32.23 G/DL
same,MEAN CORPUSCULAR VOLUME,[1],66.25 fL
same,MONOCYTE,[1],1.93%
same,NEUTROPHIL,[1],9.1%
same,PLATELET COUNT,[1],1204.5 x10E3/uL
same,ALANINE AMINOTRANSFERASE,[1],43 u/L
same,ALBUMIN,[1],4.08 G/DL
same,ALKALINE PHOSPHATASE,[1],426.33 u/L
same,ASPARTATE AMINOTRANSFERASE,[1],72.5 u/L
same,BLOOD UREA NITROGEN,[1],16.67 mg/dL
same,CARBON DIOXIDE,[1],28.33 mmol/L
same,CHLORIDE,[1],103.5 MEQ/L
same,CHOLESTEROL,[1],78.83 mg/dL
same,CREATINE PHOSPHOKINASE,[1],325.67 u/L
same,CREATININE,[1],0.48 mg/dL
same,GLUCOSE,[1],171.67 mg/dL
same,LACTATE DEHYDROGENASE,[1],107.33 u/L
same,LIPASE,[1],11.83 u/L
same,PHOSPHORUS,[1],12.55 mg/dL
same,POTASSIUM,[1],6.57 MEQ/L
same,SODIUM,[1],145.67 MEQ/L
same,TOTAL BILIRUBIN,[1],0.42 mg/dL
same,TOTAL PROTEIN,[1],6.1 G/DL
same,URIC ACID,[1],1.57 mg/dL
same,BASOPHIL,[2],0.48%
same,EOSINOPHIL,[2],0.67%
same,ERYTHROCYTE COUNT,[2],6.69 x10E6/uL
same,HEMATOCRIT,[2],44.17%
same,HEMOGLOBIN,[2],13.78 G/DL
same,LEUKOCYTE COUNT,[2],7.86 x10E3/uL
same,LYMPHOCYTE,[2],85.9%
same,MEAN CORPUSCULAR HEMOGLOBIN,[2],20.6 pg
same,MEAN CORPUSCULAR HEMOGLOBIN CONCENTRATION,[2],31.25 G/DL
same,MEAN CORPUSCULAR VOLUME,[2],65.9 fL
same,MONOCYTE,[2],3.27%
same,NEUTROPHIL,[2],8.67%
same,PLATELET COUNT,[2],1182.33 x10E3/uL
same,ALANINE AMINOTRANSFERASE,[2],37.5 u/L
same,ALBUMIN,[2],4 G/DL
same,ALKALINE PHOSPHATASE,[2],348.17 u/L
same,ASPARTATE AMINOTRANSFERASE,[2],71.67 u/L
same,BLOOD UREA NITROGEN,[2],13 mg/dL
same,CARBON DIOXIDE,[2],27 mmol/L
same,CHLORIDE,[2],104.67 MEQ/L
same,CHOLESTEROL,[2],73.33 mg/dL
same,CREATINE PHOSPHOKINASE,[2],211.33 u/L
same,CREATININE,[2],0.23 mg/dL
same,GLUCOSE,[2],155 mg/dL
same,LACTATE DEHYDROGENASE,[2],133.83 u/L
same,LIPASE,[2],11.17 u/L
same,PHOSPHORUS,[2],14.53 mg/dL
same,POTASSIUM,[2],6.65 MEQ/L
same,SODIUM,[2],148.17 MEQ/L
same,TOTAL BILIRUBIN,[2],0.28 mg/dL
same,TOTAL PROTEIN,[2],6.22 G/DL
same,URIC ACID,[2],1.57 mg/dL
same,BASOPHIL,[3],0.97%
same,EOSINOPHIL,[3],0.8%
same,ERYTHROCYTE COUNT,[3],7.02 x10E6/uL
same,HEMATOCRIT,[3],44.43%
same,HEMOGLOBIN,[3],14.58 G/DL
same,LEUKOCYTE COUNT,[3],16.49 x10E3/uL
same,LYMPHOCYTE,[3],79.03%
same,MEAN CORPUSCULAR HEMOGLOBIN,[3],20.85 pg
same,MEAN CORPUSCULAR HEMOGLOBIN CONCENTRATION,[3],32.78 G/DL
same,MEAN CORPUSCULAR VOLUME,[3],63.57 fL
same,MONOCYTE,[3],1.9%
same,NEUTROPHIL,[3],15.18%
same,PLATELET COUNT,[3],1184.33 x10E3/uL
same,ALANINE AMINOTRANSFERASE,[3],43 u/L
same,ALBUMIN,[3],4.25 G/DL
same,ALKALINE PHOSPHATASE,[3],409.67 u/L
same,ASPARTATE AMINOTRANSFERASE,[3],84.17 u/L
same,BLOOD UREA NITROGEN,[3],16 mg/dL
same,CARBON DIOXIDE,[3],35.17 mmol/L
same,CHLORIDE,[3],99.83 MEQ/L
same,CHOLESTEROL,[3],68.67 mg/dL
same,CREATINE PHOSPHOKINASE,[3],384.17 u/L
same,CREATININE,[3],0.43 mg/dL
same,GLUCOSE,[3],160 mg/dL
same,LACTATE DEHYDROGENASE,[3],115.33 u/L
same,LIPASE,[3],17.33 u/L
same,PHOSPHORUS,[3],10.68 mg/dL
same,POTASSIUM,[3],6.48 MEQ/L
same,SODIUM,[3],148.17 MEQ/L
same,TOTAL BILIRUBIN,[3],0.45 mg/dL
same,TOTAL PROTEIN,[3],6.57 G/DL
same,URIC ACID,[3],1.78 mg/dL
same,BASOPHIL,[4],0.8%
same,EOSINOPHIL,[4],0.35%
same,ERYTHROCYTE COUNT,[4],6.14 x10E6/uL
same,HEMATOCRIT,[4],40.2%
same,HEMOGLOBIN,[4],12.45 G/DL
same,LEUKOCYTE COUNT,[4],16.22 x10E3/uL
same,LYMPHOCYTE,[4],78.8%
same,MEAN CORPUSCULAR HEMOGLOBIN,[4],20.3 pg
same,MEAN CORPUSCULAR HEMOGLOBIN CONCENTRATION,[4],31 G/DL
same,MEAN CORPUSCULAR VOLUME,[4],65.45 fL
same,MONOCYTE,[4],2.65%
same,NEUTROPHIL,[4],16.45%
same,PLATELET COUNT,[4],1382 x10E3/uL
same,ALANINE AMINOTRANSFERASE,[4],38.5 u/L
same,ALBUMIN,[4],4.1 G/DL
same,ALKALINE PHOSPHATASE,[4],564 u/L
same,ASPARTATE AMINOTRANSFERASE,[4],78.5 u/L
same,BLOOD UREA NITROGEN,[4],14 mg/dL
same,CARBON DIOXIDE,[4],30.5 mmol/L
same,CHLORIDE,[4],106 MEQ/L
same,CHOLESTEROL,[4],63.5 mg/dL
same,CREATINE PHOSPHOKINASE,[4],161 u/L
same,CREATININE,[4],0.4 mg/dL
same,GLUCOSE,[4],168.5 mg/dL
same,LACTATE DEHYDROGENASE,[4],65.5 u/L
same,LIPASE,[4],14.5 u/L
same,PHOSPHORUS,[4],13.95 mg/dL
same,POTASSIUM,[4],6.9 MEQ/L
same,SODIUM,[4],148 MEQ/L
same,TOTAL BILIRUBIN,[4],0.5 mg/dL
same,TOTAL PROTEIN,[4],6.1 G/DL
same,URIC ACID,[4],1.65 mg/dL
same,BASOPHIL,[5],0.4%
same,EOSINOPHIL,[5],0.7%
same,ERYTHROCYTE COUNT,[5],5.95 x10E6/uL
same,HEMATOCRIT,[5],43%
same,HEMOGLOBIN,[5],13 G/DL
same,LEUKOCYTE COUNT,[5],15.09 x10E3/uL
same,LYMPHOCYTE,[5],67.85%
same,MEAN CORPUSCULAR HEMOGLOBIN,[5],21.85 pg
same,MEAN CORPUSCULAR HEMOGLOBIN CONCENTRATION,[5],30.25 G/DL
same,MEAN CORPUSCULAR VOLUME,[5],72.25 fL
same,MONOCYTE,[5],4.1%
same,NEUTROPHIL,[5],26.4%
same,PLATELET COUNT,[5],1312 x10E3/uL
same,ALANINE AMINOTRANSFERASE,[5],35 u/L
same,ALBUMIN,[5],4.1 G/DL
same,ALKALINE PHOSPHATASE,[5],356 u/L
same,ASPARTATE AMINOTRANSFERASE,[5],72.5 u/L
same,BLOOD UREA NITROGEN,[5],12 mg/dL
same,CARBON DIOXIDE,[5],29.5 mmol/L
same,CHLORIDE,[5],103.5 MEQ/L
same,CHOLESTEROL,[5],69.5 mg/dL
same,CREATINE PHOSPHOKINASE,[5],182 u/L
same,CREATININE,[5],0.25 mg/dL
same,GLUCOSE,[5],150.5 mg/dL
same,LACTATE DEHYDROGENASE,[5],149 u/L
same,LIPASE,[5],9 u/L
same,PHOSPHORUS,[5],13.05 mg/dL
same,POTASSIUM,[5],6.45 MEQ/L
same,SODIUM,[5],148.5 MEQ/L
same,TOTAL BILIRUBIN,[5],0.55 mg/dL
same,TOTAL PROTEIN,[5],6.3 G/DL
same,URIC ACID,[5],1.75 mg/dL
